Assay results: ChEMBL document CHEMBL4265941, “Side effects of methotrexate therapy for rheumatoid arthritis: A systematic review” (Eur J Med Chem, 2018)

How the values were obtained:
Format in all cases: ADME, organism-based
[1] = Tmax in RA patient at 7.5 to 25 mg, im; conditions: human, in vivo
[2] = Oral bioavailability in human; conditions: in vivo
[3] = Tmax in RA patient at 7.5 to 25 mg, po; conditions: human, in vivo

Tmax [1]: 1.3 h
bioavailability [2]: 50 to 80%
Tmax [3]: 1.5 h
SMILES: CN(Cc1cnc2nc(N)nc(N)c2n1)c1ccc(C(=O)N[C@@H](CCC(=O)O)C(=O)O)cc1 [METHOTREXATE]
